Reference: ChEMBL document CHEMBL1201862, “PubChem BioAssay data set” (2004)
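Cells were grown in 96-well plates and exposed to each compound for 48 hours at five concentrations; endpoints were interpolated linearly between bracketing concentrations, or set to the highest concentration if not reached. GI50 marks 50% less growth.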 The source made the active and inactive calls. Rule as the data show it: active = GI50 up to about 1.1 µM and inactive = higher.

What was measured:
Experiment in all cases: growth of human tumour cells (NCI), 48 h
SN12C = test system: SN12C
NCI-H522 = test system: NCI-H522
HCT-116 = test system: HCT-116
NCI-H226 = test system: NCI-H226
HT-29 = test system: HT-29
OVCAR-3 = test system: OVCAR-3
SNB-19 = test system: SNB-19
Malme-3M = test system: Malme-3M
SK-OV-3 = test system: SK-OV-3
SF-295 = test system: SF-295
COLO 205 = test system: COLO 205
HOP-92 = test system: HOP-92
KM-20L2 = test system: KM-20L2
M14 = test system: M14
HL-60 = test system: HL-60
NCI-H460 = test system: NCI-H460
IGROV-1 = test system: IGROV-1
HCC 2998 = test system: HCC 2998
A498 = test system: A498
SW-620 = test system: SW-620
UACC-62 = test system: UACC-62
XF498 = test system: XF498
TK-10 = test system: TK-10
EKVX = test system: EKVX
HOP-18 = test system: HOP-18
SNB-75 = test system: SNB-75
CAKI-1 = test system: CAKI-1
LOX IMVI = test system: LOX IMVI
OVCAR-8 = test system: OVCAR-8
NCI-H23 = test system: NCI-H23
K562 = test system: K562
A549 = test system: A549
DLD-1 = test system: DLD-1
KM12 = test system: KM12
U-251 = test system: U-251
RXF 631 = test system: RXF 631
UO-31 = test system: UO-31
SK-MEL-28 = test system: SK-MEL-28
SF-539 = test system: SF-539
DMS-114 = test system: DMS-114
SF-268 = test system: SF-268
MOLT-4 = test system: MOLT-4
SK-MEL-5 = test system: SK-MEL-5
UACC-257 = test system: UACC-257
M19-MEL = test system: M19-MEL
OVCAR-4 = test system: OVCAR-4
RXF 393 = test system: RXF 393
HOP-62 = test system: HOP-62
SNB-78 = test system: SNB-78
CCRF-CEM = test system: CCRF-CEM
786-0 = test system: 786-0
SR = test system: SR
ACHN = test system: ACHN
DMS-273 = test system: DMS-273
SK-MEL-2 = test system: SK-MEL-2
HCT-15 = test system: HCT-15
OVCAR-5 = test system: OVCAR-5
RPMI-8226 = test system: RPMI-8226
LXFL 529 = test system: LXFL 529

For O=C(COC(=O)c1cccc2c(=O)c3ccccc3[nH]c12)Nc1ccc(C(=O)O)cc1, the GI50 (SN12C) was > 100 µM (inactive), the GI50 (NCI-H522) was 43.7 µM (inactive) and the GI50 (HCT-116) was 84.7 µM (inactive). For the same compound, the GI50 (NCI-H226) was > 10 µM (inactive), the GI50 (HT-29) was > 100 µM (inactive) and the GI50 (OVCAR-3) was 50 µM (inactive). The GI50 (SNB-19) was > 100 µM (inactive), the GI50 (Malme-3M) was > 100 µM (inactive) and the GI50 (SK-OV-3) was > 100 µM (inactive). The GI50 (SF-295) was > 100 µM (inactive), the GI50 (COLO 205) was > 100 µM (inactive) and the GI50 (HOP-92) was > 100 µM (inactive). For the same compound, the GI50 (KM-20L2) was > 100 µM (inactive), the GI50 (M14) was > 100 µM (inactive) and the GI50 (HL-60) was 94 µM (inactive). For the same compound, the GI50 (NCI-H460) was > 100 µM (inactive), the GI50 (IGROV-1) was 99.1 µM (inactive) and the GI50 (HCC 2998) was > 100 µM (inactive). For the same compound, the GI50 (A498) was > 100 µM (inactive), the GI50 (SW-620) was > 100 µM (inactive) and the GI50 (UACC-62) was 71 µM (inactive). For the same compound, the GI50 (XF498) was 29.6 µM (inactive), the GI50 (TK-10) was > 10 µM (inactive) and the GI50 (EKVX) was > 100 µM (inactive). For the same compound, the GI50 (HOP-18) was > 100 µM (inactive), the GI50 (SNB-75) was 42.5 µM (inactive) and the GI50 (CAKI-1) was > 100 µM (inactive). The GI50 (LOX IMVI) was > 10 µM (inactive), the GI50 (OVCAR-8) was 78.7 µM (inactive) and the GI50 (NCI-H23) was > 100 µM (inactive). The GI50 (K562) was 70.6 µM (inactive), the GI50 (A549) was > 100 µM (inactive) and the GI50 (DLD-1) was > 100 µM (inactive). The GI50 (KM12) was 47.2 µM (inactive), the GI50 (U-251) was > 100 µM (inactive) and the GI50 (RXF 631) was > 100 µM (inactive). For the same compound, the GI50 (UO-31) was 71.3 µM (inactive), the GI50 (SK-MEL-28) was > 100 µM (inactive) and the GI50 (SF-539) was > 100 µM (inactive). The GI50 (DMS-114) was 61.8 µM (inactive), the GI50 (SF-268) was > 100 µM (inactive) and the GI50 (MOLT-4) was 37.8 µM (inactive). For the same compound, the GI50 (SK-MEL-5) was > 100 µM (inactive), the GI50 (UACC-257) was > 100 µM (inactive) and the GI50 (M19-MEL) was > 100 µM (inactive). The GI50 (OVCAR-4) was > 100 µM (inactive), the GI50 (RXF 393) was 46.8 µM (inactive) and the GI50 (HOP-62) was > 100 µM (inactive). The GI50 (SNB-78) was 59.3 µM (inactive), the GI50 (CCRF-CEM) was 69.5 µM (inactive) and the GI50 (786-0) was > 100 µM (inactive). For the same compound, the GI50 (SR) was 30.8 µM (inactive) and the GI50 (ACHN) was > 100 µM (inactive).
In the case of CC(C)(C)CC(C)(C)c1cc2c(O)c(c1)Cc1cc(C(C)(C)CC(C)(C)C)cc(c1O)Cc1cc(C(C)(C)CC(C)(C)C)cc(c1O)Cc1cc(C(C)(C)CC(C)(C)C)cc(c1O)Cc1cc(C(C)(C)CC(C)(C)C)cc(c1O)Cc1cc(C(C)(C)CC(C)(C)C)cc(c1O)C2, the GI50 (SN12C) was > 100 µM (inactive), the GI50 (NCI-H522) was > 100 µM (inactive) and the GI50 (HCT-116) was > 100 µM (inactive). The GI50 (HT-29) was > 100 µM (inactive), the GI50 (OVCAR-3) was > 100 µM (inactive) and the GI50 (SNB-19) was > 100 µM (inactive). For the same compound, the GI50 (Malme-3M) was > 100 µM (inactive), the GI50 (SF-295) was > 100 µM (inactive) and the GI50 (COLO 205) was > 100 µM (inactive). The GI50 (HOP-92) was > 100 µM (inactive), the GI50 (KM-20L2) was > 100 µM (inactive) and the GI50 (M14) was > 100 µM (inactive). The GI50 (DMS-273) was > 100 µM (inactive), the GI50 (HL-60) was > 100 µM (inactive) and the GI50 (NCI-H460) was > 100 µM (inactive). The GI50 (IGROV-1) was > 100 µM (inactive), the GI50 (HCC 2998) was > 100 µM (inactive) and the GI50 (SW-620) was > 100 µM (inactive). The GI50 (UACC-62) was > 100 µM (inactive), the GI50 (XF498) was > 100 µM (inactive) and the GI50 (TK-10) was > 100 µM (inactive). The GI50 (EKVX) was > 100 µM (inactive), the GI50 (SNB-75) was > 100 µM (inactive) and the GI50 (OVCAR-8) was > 100 µM (inactive). The GI50 (NCI-H23) was > 100 µM (inactive), the GI50 (SK-MEL-2) was > 100 µM (inactive) and the GI50 (K562) was > 100 µM (inactive). For the same compound, the GI50 (A549) was > 100 µM (inactive), the GI50 (HCT-15) was greater than 100 µM and the GI50 (DLD-1) was > 100 µM (inactive). For the same compound, the GI50 (KM12) was > 100 µM (inactive), the GI50 (U-251) was > 100 µM (inactive) and the GI50 (OVCAR-5) was > 100 µM (inactive). For the same compound, the GI50 (RXF 631) was > 100 µM (inactive), the GI50 (UO-31) was > 100 µM (inactive) and the GI50 (SK-MEL-28) was > 100 µM (inactive). For the same compound, the GI50 (RPMI-8226) was > 100 µM (inactive), the GI50 (SF-539) was > 100 µM (inactive) and the GI50 (DMS-114) was > 100 µM (inactive). For the same compound, the GI50 (SF-268) was > 100 µM (inactive), the GI50 (MOLT-4) was > 100 µM (inactive) and the GI50 (SK-MEL-5) was > 100 µM (inactive). For the same compound, the GI50 (UACC-257) was > 100 µM (inactive), the GI50 (M19-MEL) was > 100 µM (inactive) and the GI50 (OVCAR-4) was > 100 µM (inactive). The GI50 (RXF 393) was > 100 µM (inactive), the GI50 (HOP-62) was > 100 µM (inactive) and the GI50 (SNB-78) was > 100 µM (inactive). For the same compound, the GI50 (LXFL 529) was > 100 µM (inactive), the GI50 (CCRF-CEM) was > 100 µM (inactive) and the GI50 (786-0) was > 100 µM (inactive). For the same compound, the GI50 (ACHN) was > 100 µM (inactive).
Cc1c(C(=O)C/C(=N/NC(=O)c2ccccc2)C(=O)Nc2ccc(Cl)cc2)[n+]([O-])c2ccccc2[n+]1[O-] was tested, and the GI50 (SN12C) was > 100 µM (inactive), the GI50 (NCI-H522) was 38.4 µM (inactive) and the GI50 (HCT-116) was > 100 µM (inactive). For the same compound, the GI50 (NCI-H226) was > 100 µM (inactive), the GI50 (HT-29) was > 100 µM (inactive) and the GI50 (OVCAR-3) was 41.6 µM (inactive). For the same compound, the GI50 (SNB-19) was 88.3 µM (inactive), the GI50 (Malme-3M) was > 100 µM (inactive) and the GI50 (SK-OV-3) was > 100 µM (inactive). The GI50 (SF-295) was 63.8 µM (inactive), the GI50 (COLO 205) was > 100 µM (inactive) and the GI50 (M14) was > 100 µM (inactive). The GI50 (DMS-273) was 75.2 µM (inactive), the GI50 (HL-60) was 29 µM (inactive) and the GI50 (NCI-H460) was 49.1 µM (inactive). For the same compound, the GI50 (IGROV-1) was 99.5 µM (inactive), the GI50 (A498) was > 100 µM (inactive) and the GI50 (SW-620) was 46.2 µM (inactive). For the same compound, the GI50 (XF498) was > 100 µM (inactive), the GI50 (TK-10) was > 100 µM (inactive) and the GI50 (HOP-18) was > 100 µM (inactive). The GI50 (SNB-75) was > 100 µM (inactive), the GI50 (CAKI-1) was 82.4 µM (inactive) and the GI50 (LOX IMVI) was 89.1 µM (inactive). For the same compound, the GI50 (OVCAR-8) was > 100 µM (inactive), the GI50 (NCI-H23) was 38.7 µM (inactive) and the GI50 (SK-MEL-2) was > 100 µM (inactive). The GI50 (K562) was 69 µM (inactive), the GI50 (A549) was > 100 µM (inactive) and the GI50 (HCT-15) was 68.5 µM. For the same compound, the GI50 (DLD-1) was 75.7 µM (inactive), the GI50 (KM12) was > 100 µM (inactive) and the GI50 (U-251) was > 100 µM (inactive). The GI50 (OVCAR-5) was 79.3 µM (inactive), the GI50 (RXF 631) was > 100 µM (inactive) and the GI50 (SK-MEL-28) was > 100 µM (inactive). For the same compound, the GI50 (RPMI-8226) was 80.4 µM (inactive), the GI50 (SF-539) was > 100 µM (inactive) and the GI50 (DMS-114) was 32.6 µM (inactive). For the same compound, the GI50 (SF-268) was > 100 µM (inactive), the GI50 (MOLT-4) was 47 µM (inactive) and the GI50 (SK-MEL-5) was > 100 µM (inactive). For the same compound, the GI50 (UACC-257) was 69.8 µM (inactive), the GI50 (OVCAR-4) was > 100 µM (inactive) and the GI50 (RXF 393) was 85.1 µM (inactive). For the same compound, the GI50 (HOP-62) was 90.8 µM (inactive), the GI50 (SNB-78) was > 100 µM (inactive) and the GI50 (LXFL 529) was 84.3 µM (inactive). For the same compound, the GI50 (CCRF-CEM) was 32.4 µM (inactive), the GI50 (786-0) was > 100 µM (inactive) and the GI50 (SR) was 63.8 µM (inactive). For the same compound, the GI50 (ACHN) was > 100 µM (inactive).
